Patent publication US5342851A, “Substituted thiazole derivatives useful as platelet aggregation inhibitors” (McNeil-PPC, Inc., priority 1992, dated 1994)
Where a name gives a salt, the structure may show the parent alone.

Legend:
[1] = test system: activated platelets (125I-fibrinogen binding); test: Fibrinogen Binding (125I-fibrinogen binding to activated platelets); conditions: read-out: Binding (IC50, concentration of compound which provides 50% fibrinogen binding); thrombin-stimulated platelets; 0.15 μM 125I-fibrinogen
Method: The compounds of the invention as identified above are evaluated for platelet aggregation inhibition activity as indicated by the percentage of nonaggregated platelets which are available for binding in accordance with the following procedure.
Briefly, 40 mL of PRP (obtained from Biological Specialty Corp., Lansdale, Pa.) are centrifuged at 120×g to remove contaminating red cells. Aspirin (50 μM) is added and the PRP is incubated at 37° C. for 20 minutes. […] Platelets are concentrated by a 300×g centrifugation (10 minutes) and the pellet is resuspended in 4 mL. of Tyrode's buffer. The platelet suspension (4 mL) is gel-filtered through a Sepharose-2B column (50 mL bed volume). […] The binding reaction is performed in polystyrene tubes (final volume […]). Reagents are added in the following order: 80 mL of Tyrode's buffer, 50 mL of CaCl2 (final concentration (f.c.) […]) and 50 mL of thrombin (f.c. 0.1 unit/mL). The platelet suspension is then added and the mixture is allowed to incubate at room temperature for 2 minutes. Hirudin (50 mL, f.c. 0.5 unit/mL) is immediately added to prevent the catalytic activity of thrombin. […] The mixture is incubated for 10 minutes at room temperature. To terminate the binding reaction the platelets are sedimented (10,000×g for 3 minutes) through silicone oil (3:1 hi-phenol 550/methyl silicone 200, W. F. Nye, Inc., New Bedford, Mass.), in an Eppendorf centrifuge.
The amount of platelet radioactivity measured in the presence of nonlabeled fibrinogen (4 mg/mL) is considered the nonspecific binding. All samples are repeated in triplicate.
Positive percentages of fibrinogen binding indicates higher activity for inhibiting platelet aggregation since only non-aggregated or free platelets are available for fibrinogen binding.

[2] = test system: platelets (gel-filtered platelet rich plasma); test: Platelet Aggregation Inhibition Activity (agonist thrombin or ADP, light transmission); assay type: cell-based; conditions: for IC50: read-out: Aggregation (IC50, concentration at which the increase in light transmission equals 50%), thrombin or ADP agonist, 37° C., three minutes
Method: The percentage of platelet aggregation is calculated as an increase in light transmission of drug treated platelet concentrate versus control treated platelet concentrate. Blood is obtained from drug free, normal donors into tubes containing 0.13M sodium citrate (two sources are routinely used: platelet concentrate obtained from Biological Specialty Corp., Lansdale, Pa. or whole blood obtained from donors). Platelet rich plasma (PRP) is collected by centrifugation of the concentrate or whole blood at 130×g for 15 minutes at 25° C. The PRP (5 mL) is gel filtered through Sepharose 2B (bed volume 50 mL), and the platelet count is adjusted to 2×10^7 platelets per sample. The following constituents are added to a siliconized cuvette: 250 μL of the concentrated platelet filtrate, 100 μL of Tyrode's buffer (0.14M NaCl, 0.0027M KCl, 0.012M NaHCO3, 0.76 mM Na2 HPO4, 0.0055M glucose and 2 mg/mL BSA pH 7.4), 50 μL of 2 mM calcium and test drug (50 mL).
Aggregation is monitored in a dual channel Chrono-log Aggregometer for three minutes following the addition of agonist (thrombin 50 μL of 1 unit/mL, or ADP 50 μL of 100 μM). The final assay volume is 500 μL. The reaction takes place at 37° C. The peak aggregation response is calculated as the increase in light transmission units over a three minute period. The difference of the increase in light transmission between control and drug treated platelets is then expressed as a percent of the nondrug treated controls. […] A percentage increase in light transmission indicates platelet aggregation inhibition activity for the tested compound.

[3] = Homo sapiens, thrombin or ADP agonist, read-out: Aggregation (percentage increase in light transmission)

SMILES: Cc1c(C(=O)NCCCN2CCCCC2)cnn1-c1nc(-c2cccc(C(F)(F)F)c2)cs1 [Example 91]
- IC50 [1]: 10 µM
- IC50 [2]: 5 µM

SMILES: CCCCNCCCNC(=O)c1ccc(-c2csc(-c3ccc(OC)cc3)n2)cc1 [Example 226]
- IC50 [1]: 4.3 µM
- IC50 [2]: 3.8 µM

SMILES: CCN(CC)CCCNC(=O)c1ccc(-c2csc(-c3ccc(C)cc3)n2)cc1 [Example 151]
- IC50 [1]: 19 µM
- IC50 [2]: 16.7 µM

SMILES: CCN(CC)CCCNC(=O)c1cnn(-c2nc(-c3ccccc3)cs2)c1C(F)(F)F [Example 50]
- IC50 [1]: 50 µM
- IC50 [2]: 30 µM

SMILES: CCN(CC)CCCNC(=O)c1ccc(-c2csc(COc3ccc(Cl)cc3)n2)cc1 [Example 206]
- IC50 [2]: 5.1 µM

SMILES: Cn1c(C(=O)NCCCN)ccc1-c1nc(-c2ccccc2)c(C(=O)O)s1 [Example 237, 2-[2-(4-Aminopropylcarbamoyl)-1-methyl-1H-pyrrol-5-yl]-4-phenyl-1,3-thiazole-5-carboxylic acid monohydrochloride monohydrate]
- inhibition at 50 µM ([2]; Homo sapiens, at 50 μM, thrombin or ADP agonist, read-out: Aggregation (percentage increase in light transmission)): 68%

SMILES: O=C(NCCCN1CCCCC1)c1cnn(-c2nc(-c3ccc(Cl)c(Cl)c3)cs2)c1C(F)(F)F [Example 97]
- IC50 [2]: 10 µM

SMILES: Cc1cccc(-c2csc(-n3ncc(C(=O)NCCN4CCCCC4)c3C(F)(F)F)n2)c1 [Example 55]
- IC50 [2]: 30 µM

SMILES: CN1CCN(CCCNC(=O)c2cnn(-c3nc(-c4cccc(C(F)(F)F)c4)cs3)c2-c2ccccc2)CC1 [Example 120]
- IC50 [1]: 23 µM
- IC50 [2]: 13 µM

SMILES: CCN(CC)CCCNC(=O)c1cnn(-c2nc(-c3cccc(OC)c3)cs2)c1C(F)(F)F [Example 40]
- IC50 [1]: 65 µM
- IC50 [2]: 30 µM

SMILES: O=C(NCCCN1CCCC1)c1cnn(-c2nc(-c3cccc(C(F)(F)F)c3)cs2)c1C(F)(F)F [Example 90]
- IC50 [1]: 14 µM
- IC50 [2]: 15 µM

SMILES: CCN(CC)CCNC(=O)c1cnn(-c2nc(-c3ccc([N+](=O)[O-])cc3)cs2)c1C(F)(F)F [Example 35]
- IC50 [2]: 75 µM

SMILES: O=C(NCCCN1CCCC1)c1cnn(-c2nc(-c3ccccc3C(F)(F)F)cs2)c1C(F)(F)F [Example 101]
- IC50 [2]: 15 µM

SMILES: CCN(CC)CCNC(=O)c1ccc(-c2csc(-c3ccc(C(C)(C)C)cc3)n2)cc1 [Example 181]
- inhibition at 20 µM [2, 3]: 85%

SMILES: CCN(CC)CCCNC(=O)c1cnn(-c2nc(-c3ccc(C(F)(F)F)cc3)cs2)c1C(F)(F)F [Example 56]
- IC50 [2]: 4 µM

SMILES: O=C(NCCN1CCCC1)c1cnn(-c2nc(-c3cccc(C(F)(F)F)c3)cs2)c1C(F)(F)F [Example 51]
- IC50 [2]: 30 µM

SMILES: CCCNCCCNC(=O)c1cnn(-c2nc(-c3cccc(C(F)(F)F)c3)cs2)c1C(F)(F)F [Example 114]
- IC50 [1]: 10 µM
- IC50 [2]: 7 µM

SMILES: CCN(CC)CCNC(=O)c1ccc(-c2csc(-c3ccc(C)cc3)n2)cc1 [Example 176]
- IC50 [1]: 2.5 µM
- IC50 [2]: 4 µM

SMILES: CCCCNCCCNC(=O)c1cnn(-c2nc(-c3cccc(C(F)(F)F)c3)cs2)c1C(F)(F)F [Example 113]
- IC50 [1]: 10 µM
- IC50 [2]: 3.1 µM

SMILES: CC1CCCCN1CCCNC(=O)c1cnn(-c2nc(-c3cccc(C(F)(F)F)c3)cs2)c1C(F)(F)F (stereo not shown) [Example 54]
- IC50 [2]: 10 µM

SMILES: CCN(CC)CCCNC(=O)c1cnn(-c2nc(-c3cccc(C(F)(F)F)c3)c(Br)s2)c1C(F)(F)F [Example 46]
- IC50 [1]: 11.3 µM
- IC50 [2]: 2.7 µM

SMILES: NCCNC(=O)c1ccc(-c2csc(-c3ccc(C(F)(F)F)cc3)n2)cc1 [Example 196]
- IC50 [1]: 6 µM
- IC50 [2]: 3.7 µM

SMILES: O=C(NCCCN1CCCCCC1)c1cnn(-c2nc(-c3cccc(C(F)(F)F)c3)cs2)c1C(F)(F)F [Example 109]
- IC50 [2]: 6 µM

SMILES: CN(C)CCCNC(=O)c1ccc(-c2csc(-c3ccc(C(C)(C)C)cc3)n2)cc1 [Example 156]
- IC50 [1]: 12 µM
- IC50 [2]: 14.2 µM

SMILES: CCCCNCCCNC(=O)c1ccc(-c2csc(-c3ccc(Cl)cc3)n2)cc1 [Example 224]
- IC50 [1]: 3.3 µM
- IC50 [2]: 6.1 µM

SMILES: O=C(NCCCN1CCCCC1)c1cnn(-c2nc(-c3cccc(Cl)c3)cs2)c1C(F)(F)F [Example 106]
- IC50 [2]: 30 µM

SMILES: Cn1c(C(=O)NCCCNC2CCCCC2)ccc1-c1nc(-c2cccc(C(F)(F)F)c2)cs1 [Example 236, 2-[2-(4-Cyclohexylaminopropylcarbamoyl)-1-methyl-1H-pyrrol-5-yl]-4(3-trifluoromethylphenyl)thiazole]
- IC50 [1]: 13.5 µM

SMILES: Cc1ccc(-c2csc(-n3ncc(C(=O)NCCCNC4CCCCC4)c3C(F)(F)F)n2)cc1 [Example 96]
- IC50 [2]: 3.5 µM

SMILES: CCN(CC)CCCNC(=O)c1ccc(-c2csc(-c3ccc(C(F)(F)F)cc3)n2)cc1 [Example 150]
- IC50 [1]: 4.4 µM
- IC50 [2]: 5 µM

SMILES: Cc1ccc(-c2nc(-c3ccc(C(=O)NCCCN(C)C)cc3)cs2)cc1 [Example 154]
- IC50 [1]: 10 µM
- IC50 [2]: 7.2 µM

SMILES: O=C(NCCN1CCCCC1)c1cnn(-c2nc(-c3ccc(C(F)(F)F)cc3)cs2)c1C(F)(F)F [Example 57]
- IC50 [2]: 7 µM

SMILES: Cc1ccc(-c2csc(-n3ncc(C(=O)NCCCN4CCCC4)c3C(F)(F)F)n2)cc1 [Example 93]
- IC50 [2]: 30 µM

SMILES: O=C(NCCCN1CCCCC1)c1cnn(-c2nc(-c3ccccc3C(F)(F)F)cs2)c1C(F)(F)F [Example 100]
- IC50 [2]: 30 µM

SMILES: NCCCNC(=O)c1cnn(-c2nc(-c3cccc(C(F)(F)F)c3)cs2)c1C(F)(F)F [Example 121, 2-[4-(3-Aminopropylcarbamoyl)-5-(trifluoromethyl)pyrazol-1-yl]-4-(3-trifluoromethylphenyl)thiazole Monohydrochloride]
- IC50 [1]: 15 µM
- IC50 [2]: 6 µM

SMILES: CN(C)CCCNC(=O)c1cnn(-c2nc(-c3cccc(C(F)(F)F)c3)cs2)c1C(F)(F)F [Example 39]
- IC50 [1]: 16 µM
- IC50 [2]: 30 µM

SMILES: O=C(NCCCN1CCCCC1)c1ccc(-c2csc(-c3ccc(Cl)cc3)n2)cc1 [Example 211]
- IC50 [1]: 3.4 µM
- IC50 [2]: 5 µM

SMILES: CCCCNCCCNC(=O)c1ccc(-c2csc(-c3ccc(C(F)(F)F)cc3)n2)cc1 [Example 218]
- inhibition at 20 µM [2, 3]: 90%

SMILES: O=C(NCCCNC1CCCCC1)c1cnn(-c2nc(-c3cccc(Cl)c3)cs2)c1C(F)(F)F [Example 107]
- IC50 [2]: 5 µM

SMILES: CCN(CC)CCCNC(=O)c1cnn(-c2nc(-c3cc(OC)c(OC)c(OC)c3)cs2)c1C(F)(F)F [Example 47]
- IC50 [2]: 5.6 µM

SMILES: CC(C)NCCCNC(=O)c1cnn(-c2nc(-c3cccc(C(F)(F)F)c3)cs2)c1C(F)(F)F [Example 112]
- IC50 [2]: 5 µM

SMILES: O=C(NCCCN1CCCCC1)c1cnn(-c2nc(-c3ccccc3)cs2)c1C(F)(F)F [Example 94]
- IC50 [2]: 40 µM

SMILES: O=C(NCCCNC1CCCCC1)c1cnn(-c2nc(-c3cccc(C(F)(F)F)c3)cs2)c1-c1ccccc1 [Example 108]
- IC50 [2]: 20 µM

SMILES: CN(C)CCCNC(=O)c1cnn(-c2nc(-c3ccc([N+](=O)[O-])cc3)cs2)c1C(F)(F)F [Example 36]
- IC50 [1]: 50 µM

SMILES: Cc1ccc(-c2csc(-n3ncc(C(=O)NCCCN4CCCCC4)c3C(F)(F)F)n2)cc1 [Example 92]
- IC50 [2]: 10 µM

SMILES: CCN(CC)CCNC(=O)c1ccc(-c2csc(-c3ccc(Cl)cc3)n2)cc1 [Example 177]
- IC50 [2]: 12.8 µM

SMILES: CCN(CC)CCCNC(=O)c1cnn(-c2nc(-c3ccc(OC)cc3)cs2)c1C(F)(F)F [Example 41]
- IC50 [2]: 30 µM

SMILES: NCCCCCNC(=O)c1cnn(-c2nc(-c3cccc(C(F)(F)F)c3)cs2)c1C(F)(F)F [Example 61]
- IC50 [2]: 11.5 µM

SMILES: CCN(CC)CCCCNC(=O)c1cnn(-c2nc(-c3cccc(C(F)(F)F)c3)cs2)c1C(F)(F)F [Example 52]
- IC50 [2]: 6 µM

SMILES: COc1ccc(-c2nc(-c3ccc(C(=O)NCCCN(C)C)cc3)cs2)cc1 [Example 187]
- inhibition at 20 µM [2, 3]: 89%

SMILES: CC(C)N(CCCCNC(=O)c1ccc(-c2csc(-c3ccc(C(F)(F)F)cc3)n2)cc1)C(C)C [Example 189]
- inhibition at 20 µM [2, 3]: 86%

SMILES: CCN(CC)CCNC(=O)c1cnn(-c2nc(-c3cccc(C(F)(F)F)c3)cs2)c1C(F)(F)F [Example 34]
- IC50 [1]: 6 µM

SMILES: CN(C)C=NCCCNC(=O)c1cnn(-c2nc(-c3cccc(Cl)c3)cs2)c1C(F)(F)F [Example 132, 2-[4-(3-(N,N-Dimethylformamidinyl)propylcarbamoyl]5-(trifluoromethyl)pyrazol-1-yl]-4-(3-chlorophenyl)thiazole]
- IC50 [2]: 7 µM

SMILES: NCCCOCc1cnn(-c2nc(-c3cccc(C(F)(F)F)c3)cs2)c1C(F)(F)F [Example 138, 2-[4-[3-Aminopropoxymethyl]-5-(trifluoromethyl)pyrazol-1-yl]-4-(3-trifluoromethylphenyl)thiazole Hydrochloride]
- IC50 [2]: 2.1 µM

SMILES: Cc1cccc(-c2csc(-n3ncc(C(=O)NCCCN4CCCC4)c3C(F)(F)F)n2)c1 [Example 99]
- IC50 [2]: 30 µM
